Measurements taken from PubChem BioAssay (NCI).
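Cells were grown in 96-well plates and exposed to each compound for 48 hours at five concentrations; endpoints were interpolated linearly between bracketing concentrations, or set to the highest concentration if not reached. Here, GI50 denotes the concentration required for 50% inhibition of growth. Definition used: TGI = concentration required for complete inhibition of growth.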

Key:
Assay in all cases: NCI anticancer screen, dose series, 48 h
DU-145 prostate = tested on: DU-145 prostate
HCT-15 colon = tested on: HCT-15 colon
HOP-62 NSCLC = tested on: HOP-62 NSCLC
HT29 colon = tested on: HT29 colon
LOX IMVI melanoma = tested on: LOX IMVI melanoma
MCF7 breast = tested on: MCF7 breast
NCI-H23 lung = tested on: NCI-H23 lung
SK-MEL-2 melanoma = tested on: SK-MEL-2 melanoma
UACC-257 melanoma = tested on: UACC-257 melanoma
UO-31 renal = tested on: UO-31 renal

Compound | GI50 (DU-145 prostate) [µM] | TGI (DU-145 prostate) [µM] | GI50 (HCT-15 colon) [µM] | TGI (HCT-15 colon) [µM] | GI50 (HOP-62 NSCLC) [µM] | TGI (HOP-62 NSCLC) [µM] | GI50 (HT29 colon) [µM] | TGI (HT29 colon) [µM] | GI50 (LOX IMVI melanoma) [µM] | TGI (LOX IMVI melanoma) [µM] | GI50 (MCF7 breast) [µM] | TGI (MCF7 breast) [µM] | GI50 (NCI-H23 lung) [µM] | TGI (NCI-H23 lung) [µM] | GI50 (SK-MEL-2 melanoma) [µM] | TGI (SK-MEL-2 melanoma) [µM] | GI50 (UACC-257 melanoma) [µM] | TGI (UACC-257 melanoma) [µM] | GI50 (UO-31 renal) [µM] | TGI (UO-31 renal) [µM]
CCOC(=O)CCSC1=CC(=O)c2nc3ccccc3c3ccnc1c23 | 16 | 33.2 | 24.8 | 92.9 | 16.4 | 47.7 | 26.2 | 53.8 | 27 | > 100 | 13.3 | 38.3 | 16.3 | 43.3 | 26.8 | 72.8 | 14.6 | 35.7 | 16.3 | 34.9
CC(C)(C)OC(=O)N1Cc2cc3ccccc3nc2C1CO (configuration not stated) | > 100 | > 100 | > 100 | > 100 | > 100 | > 100 | > 100 | > 100 | > 100 | > 100 | > 100 | > 100 | > 100 | > 100 | > 100 | > 100 | > 100 | > 100 | > 100 | > 100
Oc1cc(O)c2c(c1)OC(c1ccc(O)c(O)c1)C(O)C2c1c(O)cc(O)c2c1OC(c1ccc(O)c(O)c1)C(O)C2 (configuration not stated) |  | > 100 |  | > 100 |  | > 100 |  | > 100 |  | > 100 |  | > 100 |  | > 100 |  | > 100 |  | > 100 |  | > 100
COc1cccc(-c2nn(-c3ccccc3)cc2-c2ccnc(NCCCNS(=O)(=O)c3ccc(C(F)(F)F)cc3)c2)c1 | 22.7 | > 100 | 4.08 | > 100 | 13.8 | > 100 | 3.21 |  | 4.86 | > 100 | 3.87 | > 100 | 4.86 | > 100 | 2.84 | 12.4 | 6.3 | 55.9 | 2.9 | > 100
Cc1ccc(C2C3Cc4ccccc4C3=NN2c2ccc(S(=O)(=O)NC(=O)Nc3ccccc3)cc2)cc1 (configuration not stated) | 14.2 | 27.2 | 14.8 | 32.2 | 19.3 | 63 | 24.3 | > 100 | 13.5 | 27.9 | 17.1 | > 100 | 14.9 | 31.9 | 14.2 | 31.5 | 18.6 | 37.8 | 11.6 | 28.4
Cc1ccc(NC2=CC(=O)C(=O)c3ccccc32)cc1 | 1.53 | 2.91 | 1.49 | 3.91 | 1.8 | 4.33 | 2.14 | 4.47 | 2.11 | 6.45 | 1.54 | 3.63 | 1.56 | 4.1 | 1.86 | 4.06 | 1.43 | 2.8 | 1.17 | 3.79
CCN(CC)CCCNc1cc(OC)c(OC)c2cccnc12 | 15.9 | 33.4 | 14.1 | 49.8 | 2.04 | 21.4 | 13.4 | 40.3 | 2.22 | 34.4 | 1.71 | 5.47 | 1.85 | 26.1 | 14.5 | 42.8 | 4.55 | 22.4 | 14.1 | > 100
Cn1cc(-c2nc(-c3cn(C)c4ncccc34)cs2)c2ccccc21 | 2.25 | 10.7 | 1.49 | > 100 | 2.01 | 11.5 |  |  | 1.27 | > 100 | 0.372 | 17.5 | 3.14 | 23.9 | 4.5 | 68.7 | 3.61 | > 100 | 4.93 | > 100
CCCCNCCCCCNc1cc(OC)cc2cccnc12 | 23.1 | 56.3 | 47.9 | > 100 | 15.1 | 30.1 |  |  | 34.8 | > 100 | > 100 | > 100 | 15.9 | 31.7 | 19.6 | 37.5 | 16.1 | 32.2 | 13.4 | 27.2
O=C(Nc1cc2cc([N+](=O)[O-])ccc2oc1=O)c1cccs1 |  | > 100 |  |  |  | > 100 |  | > 100 |  | > 100 |  | 85.2 |  |  |  | > 100 |  | > 100 |  | > 100
CCOP(=O)(OCC)C(NC(c1ccccc1)c1ccccc1)c1ccc(C(C)C)cc1 (configuration not stated) | 8.41 | 25.5 | 3.22 | 13.1 | 6.08 | 18.8 | 6.27 | 42.1 | 4.33 | 16 | 3.06 | 11.4 | 6.38 | 20.7 | 19.2 | 72.7 |  |  | 7.45 | 28.9
O=C(CC1Sc2ccccc2NC1=O)NNc1ccc(F)cc1 (configuration not stated) | 57 | > 100 | 6.76 | > 100 | 66.3 | > 100 | > 100 | > 100 | 4.51 | > 100 | 52 | > 100 | > 100 | > 100 | 72.9 | > 100 |  |  | 7.47 | > 100
O=C(Nc1ccc(Cl)cc1)N1CCN(c2ccc3nncn3n2)CC1 | 49.8 | > 100 | 30.2 | > 100 | > 100 | > 100 | 60.7 | > 100 | 92.4 | > 100 | 35.3 | > 100 | 42.3 | > 100 | 65.4 | > 100 |  |  | 24.9 | > 100
